How the values were obtained:
[1] = test system: control sera (pooled serum of ten healthy LUMC hospital workers; commercial negative donor pooled serum from the Dutch bloodbank); type: binding, human; design: Binding of Control serum LUMC to linear peptides / Binding of Control serum Blood-bank to linear peptides / Binding of Control serum LUMC to looped peptides / Binding of Control Serum Blood-Bank to Looped peptides / Binding of Control serum LUMC to linear peptides of the protein M of SARS-CoV Urbani / Binding of Control serum Blood-bank to linear peptides of the protein M of SARS-CoV Urbani / Binding of Control serum LUMC to looped peptides of the protein M of SARS-CoV Urbani / Binding of Control Serum Blood-Bank to Looped peptides of the protein M of SARS-CoV Urbani: unit not given here
[2] = test system: rabbit serum obtained by immunizing a rabbit with the SARS-CoV strain Frankfurt 1; type: binding; design: Binding of a rabbit serum to linear peptides / Binding of a rabbit serum to looped peptides / Rabbit serum linear peptides / Rabbit serum looped peptides / Binding of a rabbit serum to linear peptides of protein N of SARS-CoV Urbani (Rabbit serum linear peptides) / Binding of a rabbit serum to looped/cyclic peptides of protein N of SARS-CoV Urbani (Rabbit serum looped peptides): unit not given here
[3] = test system: antibodies in sera from SARS patients (sera 1a, 1b, 2, 6, 37, 62, London, SARS-yellow, SARS-green); type: binding, human; design: Binding of serum 6 to linear peptides of protein X1 of SARS-CoV Urbani / Binding of serum 37 to linear peptides of protein X1 of SARS-CoV Urbani / Binding of serum 6 to looped/cyclic peptide (PEPSCAN-ELISA) / Binding of serum 37 to looped/cyclic peptide (PEPSCAN-ELISA) / Binding of serum 37 to looped/cyclic peptides of protein X1 of SARS-CoV Urbani / Binding of serum 6 to linear peptides of protein X2 / Binding of serum 37 to linear peptides of protein X2 / Binding of serum 37 to looped/cyclic peptides of protein X2 of SARS-CoV Urbani / Binding of serum 6 to linear peptides of protein M of SARS-CoV Urbani / Binding of serum 37 to linear peptides of protein M of SARS-CoV Urbani / Binding of serum 6 to looped/cyclic peptides of protein M of SARS-CoV Urbani / Binding of serum 37 to looped/cyclic peptides of protein M of SARS-CoV Urbani / Binding of serum 6 to linear peptides of protein X3 of SARS-CoV Urbani / Binding of serum 37 to linear peptides of protein X3 of SARS-CoV Urbani / Binding of serum 37 to looped/cyclic peptides of protein X3 of SARS-CoV Urbani / Binding of serum 6 to linear peptides of protein X4 of SARS-CoV Urbani / Binding of serum 37 to linear peptides of protein X4 of SARS-CoV Urbani / Binding of serum 37 to looped/cyclic peptides of protein X4 of SARS-CoV Urbani / Binding of serum 6 to linear peptides of protein X5 of SARS-CoV Urbani / Binding of serum 37 to linear peptides of protein X5 of SARS-CoV Urbani / Binding of serum 37 to looped/cyclic peptides of protein X5 of SARS-CoV Urbani / Binding of serum 6 to linear peptides of protein N of SARS-CoV Urbani / Binding of serum 37 to linear peptides of protein N of SARS-CoV Urbani / Binding of serum 6 to linear peptide (PEPSCAN-ELISA) / Binding of serum 1a to looped/cyclic peptides of protein N of SARS-CoV Urbani / Binding of serum 1b to looped/cyclic peptides of protein N of SARS-CoV Urbani / Binding of serum 2 to looped/cyclic peptides of protein N of SARS-CoV Urbani / Binding of serum 6 to looped/cyclic peptides of protein N of SARS-CoV Urbani / Binding of serum 37 to looped/cyclic peptides of protein N of SARS-CoV Urbani / Binding of serum 62 to looped/cyclic peptides of protein N of SARS-CoV Urbani / Binding of serum London to looped/cyclic peptides of protein N of SARS-CoV Urbani / Binding of serum SARS-green to looped/cyclic peptides of protein N of SARS-CoV Urbani: unit not given here

## TDSGFAAYNRYRIGN
[1]
  Binding of Control Serum Blood-Bank to Looped peptides of the protein M of SARS-CoV Urbani: 0.6
  Binding of Control serum Blood-bank to linear peptides of the protein M of SARS-CoV Urbani: 0.7
  Binding of Control serum LUMC to linear peptides of the protein M of SARS-CoV Urbani: 0.3
  Binding of Control serum LUMC to looped peptides of the protein M of SARS-CoV Urbani: 0.7
[2]
  Rabbit serum linear peptides: 0.0
  Rabbit serum looped peptides: 0.5
[3]
  Binding of serum 1a to linear peptides of protein M of SARS-CoV Urbani: 0.6
  Binding of serum 1a to looped/cyclic peptides of protein M of SARS-CoV Urbani: 0.7
  Binding of serum 1b to linear peptides of protein M of SARS-CoV Urbani: 0.4
  Binding of serum 1b to looped/cyclic peptides of protein M of SARS-CoV Urbani: 0.5
  Binding of serum 2 to linear peptides of protein M of SARS-CoV Urbani: 0.5
  Binding of serum 2 to looped/cyclic peptides of protein M of SARS-CoV Urbani: 0.6
  Binding of serum 6 to linear peptides of protein M of SARS-CoV Urbani: 0.4
  Binding of serum 6 to looped/cyclic peptides of protein M of SARS-CoV Urbani: 0.9
  Binding of serum 37 to linear peptides of protein M of SARS-CoV Urbani: 0.4
  Binding of serum 37 to looped/cyclic peptides of protein M of SARS-CoV Urbani: 0.7
  Binding of serum 62 to linear peptides of protein M of SARS-CoV Urbani: 0.6
  Binding of serum 62 to looped/cyclic peptides of protein M of SARS-CoV Urbani: 0.7
  Binding of serum London to linear peptides of protein M of SARS-CoV Urbani: 0.3
  Binding of serum London to looped/cyclic peptides of protein M of SARS-CoV Urbani: 0.2
  Binding of serum SARS-green to linear peptides of protein M of SARS-CoV Urbani: 0.3
  Binding of serum SARS-green to looped/cyclic peptides of protein M of SARS-CoV Urbani: 0.1
  Binding of serum SARS-yellow to linear peptides of protein M of SARS-CoV Urbani: 0.0
  Binding of serum SARS-yellow to looped/cyclic peptides of protein M of SARS-CoV Urbani: 0.8

## TDTIVVTEGDGISTP
[1]
  Binding of Control Serum Blood-Bank to Looped peptides: 0.4
  Binding of Control serum Blood-bank to linear peptides: 0.5
  Binding of Control serum LUMC to linear peptides: 0.5
  Binding of Control serum LUMC to looped peptides: 0.4
[2]
  Binding of a rabbit serum to linear peptides: 0.1
  Binding of a rabbit serum to looped peptides: 0.3
[3]
  Binding of serum 1a to linear peptides of protein X1 of SARS-CoV Urbani: 0.6
  Binding of serum 1a to looped/cyclic peptides of protein X1 of SARS-CoV Urbani: 0.4
  Binding of serum 1b to linear peptides of protein X1 of SARS-CoV Urbani: 0.5
  Binding of serum 1b to looped/cyclic peptides of protein X1 of SARS-CoV Urbani: 0.3
  Binding of serum 2 to linear peptides of protein X1 of SARS-CoV Urbani: 0.4
  Binding of serum 2 to looped/cyclic peptides of protein X1 of SARS-CoV Urbani: 0.2
  Binding of serum 6 to linear peptides of protein X1 of SARS-CoV Urbani: 0.5
  Binding of serum 6 to looped/cyclic peptides of protein X1 of SARS-CoV Urbani: 0.2
  Binding of serum 37 to linear peptides of protein X1 of SARS-CoV Urbani: 0.5
  Binding of serum 37 to looped/cyclic peptides of protein X1 of SARS-CoV Urbani: 0.3
  Binding of serum 62 to linear peptides of protein X1 of SARS-CoV Urbani: 0.4
  Binding of serum 62 to looped/cyclic peptides of protein X1 of SARS-CoV Urbani: 0.3
  Binding of serum London to linear peptides of protein X1 of SARS-CoV Urbani: 0.2
  Binding of serum London to looped/cyclic peptides of protein X1 of SARS-CoV Urbani: 0.1
  Binding of serum SARS-green to linear peptides of protein X1 of SARS-CoV Urbani: 0.3
  Binding of serum SARS-green to looped/cyclic peptides of protein X1 of SARS-CoV Urbani: 0.2
  Binding of serum SARS-yellow to linear peptides of protein X1 of SARS-CoV Urbani: 0.2
  Binding of serum SARS-yellow to looped/cyclic peptides of protein X1 of SARS-CoV Urbani: 0.4

## TEGDGISTPKLKEDY
[1]
  Binding of Control Serum Blood-Bank to Looped peptides: 0.5
  Binding of Control serum Blood-bank to linear peptides: 0.2
  Binding of Control serum LUMC to linear peptides: 0.2
  Binding of Control serum LUMC to looped peptides: 0.5
[2]
  Binding of a rabbit serum to linear peptides: 0.1
  Binding of a rabbit serum to looped peptides: 0.5
[3]
  Binding of serum 1a to linear peptides of protein X1 of SARS-CoV Urbani: 0.5
  Binding of serum 1a to looped/cyclic peptides of protein X1 of SARS-CoV Urbani: 0.5
  Binding of serum 1b to linear peptides of protein X1 of SARS-CoV Urbani: 0.3
  Binding of serum 1b to looped/cyclic peptides of protein X1 of SARS-CoV Urbani: 0.4
  Binding of serum 2 to linear peptides of protein X1 of SARS-CoV Urbani: 0.4
  Binding of serum 2 to looped/cyclic peptides of protein X1 of SARS-CoV Urbani: 0.5
  Binding of serum 6 to linear peptides of protein X1 of SARS-CoV Urbani: 0.2
  Binding of serum 6 to looped/cyclic peptides of protein X1 of SARS-CoV Urbani: 0.4
  Binding of serum 37 to linear peptides of protein X1 of SARS-CoV Urbani: 0.4
  Binding of serum 37 to looped/cyclic peptides of protein X1 of SARS-CoV Urbani: 0.4
  Binding of serum 62 to linear peptides of protein X1 of SARS-CoV Urbani: 0.3
  Binding of serum 62 to looped/cyclic peptides of protein X1 of SARS-CoV Urbani: 0.4
  Binding of serum London to linear peptides of protein X1 of SARS-CoV Urbani: 0.2
  Binding of serum London to looped/cyclic peptides of protein X1 of SARS-CoV Urbani: 0.2
  Binding of serum SARS-green to linear peptides of protein X1 of SARS-CoV Urbani: 0.1
  Binding of serum SARS-green to looped/cyclic peptides of protein X1 of SARS-CoV Urbani: 0.3
  Binding of serum SARS-yellow to linear peptides of protein X1 of SARS-CoV Urbani: 0.0
  Binding of serum SARS-yellow to looped/cyclic peptides of protein X1 of SARS-CoV Urbani: 0.3

## TEVYYQLESTQITTD
[1]
  Binding of Control Serum Blood-Bank to Looped peptides: 0.4
  Binding of Control serum Blood-bank to linear peptides: 0.5
  Binding of Control serum LUMC to linear peptides: 0.5
  Binding of Control serum LUMC to looped peptides: 0.4
[2]
  Binding of a rabbit serum to linear peptides: 0.1
  Binding of a rabbit serum to looped peptides: 0.4
[3]
  Binding of serum 1a to linear peptides of protein X1 of SARS-CoV Urbani: 0.8
  Binding of serum 1a to looped/cyclic peptides of protein X1 of SARS-CoV Urbani: 0.5
  Binding of serum 1b to linear peptides of protein X1 of SARS-CoV Urbani: 0.8
  Binding of serum 1b to looped/cyclic peptides of protein X1 of SARS-CoV Urbani: 0.5
  Binding of serum 2 to linear peptides of protein X1 of SARS-CoV Urbani: 0.5
  Binding of serum 2 to looped/cyclic peptides of protein X1 of SARS-CoV Urbani: 0.2
  Binding of serum 6 to linear peptides of protein X1 of SARS-CoV Urbani: 0.5
  Binding of serum 6 to looped/cyclic peptides of protein X1 of SARS-CoV Urbani: 0.3
  Binding of serum 37 to linear peptides of protein X1 of SARS-CoV Urbani: 0.9
  Binding of serum 37 to looped/cyclic peptides of protein X1 of SARS-CoV Urbani: 0.5
  Binding of serum 62 to linear peptides of protein X1 of SARS-CoV Urbani: 0.6
  Binding of serum 62 to looped/cyclic peptides of protein X1 of SARS-CoV Urbani: 0.4
  Binding of serum London to linear peptides of protein X1 of SARS-CoV Urbani: 0.4
  Binding of serum London to looped/cyclic peptides of protein X1 of SARS-CoV Urbani: 0.2
  Binding of serum SARS-green to linear peptides of protein X1 of SARS-CoV Urbani: 0.5
  Binding of serum SARS-green to looped/cyclic peptides of protein X1 of SARS-CoV Urbani: 0.3
  Binding of serum SARS-yellow to linear peptides of protein X1 of SARS-CoV Urbani: 0.6
  Binding of serum SARS-yellow to looped/cyclic peptides of protein X1 of SARS-CoV Urbani: 0.3

Reference: patent US20070128217A1 (priority 2003, published 2007)
